SMILES strings stand for the structures.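 Method: 48-hour compound exposure of cells in 96-well plates, five concentrations, linear interpolation of endpoints. GI50: concentration for 50% inhibition of growth.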 Activity calls are given as the source filed them. Rule as the data show it: active = GI50 up to about 1.1 µM and inactive = higher.

Some test systems named below: NCI-H522; U-251; OVCAR-5; DU-145; MCF7; SF-539; SK-OV-3; RPMI-8226; COLO 205; EKVX; SF-295; HCT-15; 786-0; PC-3; TK-10; SNB-75; T47D; Hs-578T; UO-31.
What all share (test): DTP human tumour cell line panel, 48 h

The term GI50 denotes the concentration at which growth is held to half of that of the control. `O=C(c1cccs1)N(C(=S)OCCOc1ccccc1)c1ccccc1`: the GI50 is 23 µM (inactive) in the assay on NCI-H522; 21.4 µM (inactive) in the assay with U-251; 28.4 µM (inactive) with OVCAR-5; 28.6 µM (inactive) in the assay on DU-145; 20.2 µM (inactive) with MCF7; 34.3 µM (inactive) in the assay on SF-539. In addition, the GI50 with SK-OV-3 was 30.3 µM (inactive); in the assay with RPMI-8226, 20.9 µM (inactive); in the assay with COLO 205, 24.8 µM (inactive); in the assay with EKVX it was 29.5 µM (inactive); with SF-295, 26.5 µM (inactive); in the assay on HCT-15, 27.4 µM. In addition, the GI50 in the assay on 786-0 is 25.2 µM (inactive); in the assay on PC-3, 24.7 µM (inactive); with TK-10, 41 µM (inactive); in the assay on SNB-75, 24.3 µM (inactive); with T47D, 35.8 µM (inactive); in the assay with Hs-578T, 58.6 µM (inactive).

Turning to `CN(C)c1ccc(/C=C2\Oc3cc(O)ccc3C2=O)cc1`, the GI50 with NCI-H522 was 28.1 µM (inactive); in the assay on U-251 it was 57 µM (inactive); in the assay with DU-145, > 100 µM (inactive); in the assay with MCF7, 80.9 µM (inactive); in the assay on SF-539, > 100 µM (inactive); in the assay on SK-OV-3 it was > 100 µM (inactive). Further, the GI50 with RPMI-8226 is 74.1 µM (inactive); in the assay on COLO 205, > 100 µM (inactive); with EKVX, > 100 µM (inactive); with SF-295, 30.5 µM (inactive); in the assay with HCT-15, 44.9 µM; in the assay on 786-0 it was > 100 µM (inactive). For the same compound, the GI50 was > 100 µM (inactive) in the assay with PC-3; > 100 µM (inactive) in the assay with TK-10; 79.6 µM (inactive) in the assay on SNB-75; > 100 µM (inactive) in the assay with UO-31; > 100 µM (inactive) in the assay with T47D; > 100 µM (inactive) in the assay on Hs-578T.

For `O=C(O)c1nc2ccccc2nc1NCc1ccc(F)cc1`, the GI50 in the assay with NCI-H522 is 48.9 µM (inactive); in the assay on U-251, 52.7 µM (inactive); with OVCAR-5, > 100 µM (inactive); in the assay with DU-145 it was 99.8 µM (inactive); in the assay on MCF7 it was 86.5 µM (inactive); in the assay with SF-539, > 100 µM (inactive). Moreover, the GI50 was 60.4 µM (inactive) with RPMI-8226; 31.9 µM (inactive) in the assay with COLO 205; 45.8 µM (inactive) with EKVX; 38 µM (inactive) with SF-295; 16.6 µM in the assay on HCT-15; 42.8 µM (inactive) with 786-0. Besides, the GI50 was > 100 µM (inactive) in the assay with PC-3; > 100 µM (inactive) with TK-10; > 100 µM (inactive) with SNB-75; 45.3 µM (inactive) with UO-31; 40.9 µM (inactive) in the assay on T47D; 61.8 µM (inactive) in the assay on Hs-578T.

Turning to `C[N+](C)(C)CCN(Cc1cccs1)c1ccccn1`, the GI50 in the assay with NCI-H522 is 40.8 µM (inactive); in the assay on U-251, > 100 µM (inactive); in the assay on DU-145 it was > 100 µM (inactive); in the assay on MCF7, > 100 µM (inactive); with SF-539, > 100 µM (inactive); in the assay on SK-OV-3 it was > 100 µM (inactive). For the same compound, the GI50 with RPMI-8226 is > 100 µM (inactive); with COLO 205 it was 35.2 µM (inactive); with SF-295 it was > 100 µM (inactive); in the assay on HCT-15 it was > 100 µM; in the assay on 786-0, > 100 µM (inactive); with PC-3, > 100 µM (inactive). Moreover, the GI50 with TK-10 is > 100 µM (inactive); with SNB-75, 59.8 µM (inactive); in the assay with UO-31, > 100 µM (inactive); with T47D, > 100 µM (inactive); in the assay on Hs-578T, 74.5 µM (inactive).

Consider `O=C(Nc1ccc(Cl)cc1)c1cc(S(=O)(=O)N2CCNNC2=O)c(S)cc1Cl`, for which the GI50 in the assay on NCI-H522 is 24.7 µM (inactive); in the assay with U-251, > 100 µM (inactive); in the assay with OVCAR-5 it was > 100 µM (inactive); in the assay with DU-145 it was > 100 µM (inactive); in the assay with MCF7, > 100 µM (inactive); in the assay on SF-539, > 100 µM (inactive). In addition, the GI50 is 55.1 µM (inactive) with RPMI-8226; > 100 µM (inactive) in the assay on COLO 205; > 100 µM (inactive) in the assay with EKVX; > 100 µM (inactive) in the assay with SF-295; > 100 µM in the assay with HCT-15; > 100 µM (inactive) with 786-0. Also, the GI50 in the assay on PC-3 is > 100 µM (inactive); with TK-10, 52.5 µM (inactive); in the assay on SNB-75, > 100 µM (inactive); in the assay with UO-31, > 100 µM (inactive); in the assay on T47D it was 35.6 µM (inactive); with Hs-578T, > 100 µM (inactive).

For `O=c1[nH]c2nccn2c2c1SCCN2`, the GI50 in the assay with NCI-H522, in the assay with U-251, in the assay on OVCAR-5, with DU-145, in the assay on MCF7 and in the assay on SF-539 was > 100 µM (inactive) each time. In addition, the GI50 with RPMI-8226 is > 100 µM (inactive); with COLO 205, > 100 µM (inactive); in the assay with EKVX, > 100 µM (inactive); in the assay on SF-295, > 100 µM (inactive); in the assay with HCT-15, > 100 µM; in the assay with 786-0, > 100 µM (inactive). For the same compound, the GI50 in the assay with PC-3, in the assay on TK-10, in the assay with SNB-75, in the assay on T47D and in the assay on Hs-578T was > 100 µM (inactive) each time.

Take `CCCC[C@@H]1CCN2C[C@@H](O)[C@@H](O)[C@@H]2[C@H]1O`: the GI50 in the assay with NCI-H522, with U-251, in the assay with OVCAR-5, in the assay on DU-145, in the assay with MCF7 and with SF-539 was > 100 µM (inactive) throughout. Further, the GI50 in the assay with SK-OV-3 is > 100 µM (inactive); in the assay with RPMI-8226, > 100 µM (inactive); in the assay with COLO 205, > 100 µM (inactive); in the assay with EKVX, > 100 µM (inactive); with SF-295, > 100 µM (inactive); in the assay on HCT-15, > 100 µM. Moreover, the GI50 in the assay on 786-0 was > 100 µM (inactive); in the assay with PC-3 it was > 100 µM (inactive); in the assay with SNB-75, 89.9 µM (inactive); in the assay on UO-31 it was > 100 µM (inactive); in the assay on T47D it was > 100 µM (inactive); with Hs-578T it was > 100 µM (inactive).

As for `O=c1[nH]nc(-c2ccccc2)n1/N=C\c1ccccc1`, the GI50 in the assay on NCI-H522, in the assay on U-251, in the assay with OVCAR-5, in the assay on DU-145, in the assay on MCF7 and with SF-539 was > 100 µM (inactive) each time. Further, the GI50 in the assay with RPMI-8226 was > 100 µM (inactive); with COLO 205, > 100 µM (inactive); in the assay with EKVX it was > 100 µM (inactive); with SF-295 it was 29 µM (inactive); with HCT-15, > 100 µM; in the assay on 786-0 it was > 100 µM (inactive). Besides, the GI50 in the assay with PC-3, with TK-10, in the assay with SNB-75, in the assay on UO-31, in the assay on T47D and with Hs-578T was > 100 µM (inactive) each time.

In the case of `Nn1c(Cc2ccc([N+](=O)[O-])cc2)n[nH]c1=O`, the GI50 in the assay on NCI-H522, in the assay with U-251, with OVCAR-5, in the assay on DU-145, in the assay on MCF7 and with SF-539 was > 100 µM (inactive) each time. Moreover, the GI50 with SK-OV-3 was > 100 µM (inactive); with RPMI-8226, > 100 µM (inactive); with COLO 205, > 100 µM (inactive); in the assay on EKVX, > 100 µM (inactive); with SF-295, > 100 µM (inactive); in the assay on HCT-15, > 100 µM. Moreover, the GI50 in the assay on 786-0, in the assay on PC-3, in the assay on SNB-75, with UO-31, in the assay with T47D and with Hs-578T was > 100 µM (inactive) in each case.

Take `Cc1nc2ccc(NC(=S)Nc3ccccc3)cc2c(=O)n1-c1ccccc1`: the GI50 with NCI-H522 is > 100 µM (inactive); with U-251, 57.7 µM (inactive); with OVCAR-5 it was > 100 µM (inactive); in the assay with DU-145, > 100 µM (inactive); with MCF7 it was > 100 µM (inactive); in the assay with RPMI-8226 it was 23.6 µM (inactive). Besides, the GI50 in the assay on COLO 205 was 80.4 µM (inactive); in the assay on EKVX, > 100 µM (inactive); in the assay with SF-295, > 100 µM (inactive); in the assay with HCT-15, > 100 µM; in the assay on 786-0, > 100 µM (inactive); in the assay with PC-3, > 100 µM (inactive). The GI50 in the assay with TK-10, in the assay on SNB-75, in the assay on UO-31, in the assay with T47D and with Hs-578T was > 100 µM (inactive) each time.

Regarding `COc1cc([C@@H]2c3cc4c(c(O)c3C[C@H]3COC(=O)[C@@H]32)OCO4)cc(OC)c1OC` [BETA-PELTATIN A], the concentration for 50% growth inhibition (GI50) with NCI-H522 is 0.0676 µM (active); in the assay on OVCAR-5 it was 21.4 µM (inactive); in the assay on DU-145, < 0.0241 µM (active); in the assay with MCF7 it was 0.015 µM (active); in the assay with RPMI-8226 it was 0.015 µM (active); in the assay with COLO 205, 0.0238 µM (active). For the same compound, the 50% growth inhibitory concentration (GI50) in the assay with EKVX was 0.282 µM (active); in the assay on SF-295, 0.0238 µM (active); in the assay with HCT-15, 0.015 µM; in the assay with 786-0, 0.0241 µM (active); in the assay on PC-3, 0.0241 µM (active); in the assay with TK-10, 31.6 µM (inactive). Also, the GI50 with SNB-75 was 1.61 µM (inactive); in the assay on UO-31, 0.0693 µM (active); in the assay with T47D it was 51.9 µM (inactive); with Hs-578T it was 0.0241 µM (active).

(Values after ChEMBL document CHEMBL1201862, “PubChem BioAssay data set” (2004).)
